These results are taken from ChEMBL document CHEMBL3865818, “4,5-Diaryl-3H-1,2-dithiole-3-thiones and related compounds as combretastatin A-4/oltipraz hybrids: Synthesis, molecular modelling and evaluation as antiproliferative agents and inhibitors of tubulin” (Eur J Med Chem, 2016).

What all share (format): functional
The nature of test [1]: Cell cycle arrest in human KB cells assessed as accumulation at G2/M-phase at 0.1 uM measured after 48 hrs by propidium iodide staining-based flow cytometry (reference value: 23.36%). For orientation: In flow cytometry, cells or beads pass a laser one at a time.
Test [2] in a line: Cell cycle arrest in human KB cells assessed as accumulation at SubG1-phase at 0.05 uM measured after 36 hrs by propidium iodide staining-based flow cytometry (reference value: 0.63%).
Test [3] in a line: Cell cycle arrest in human KB cells assessed as accumulation at SubG1-phase at 0.05 uM measured after 48 hrs by propidium iodide staining-based flow cytometry (reference value: 0.61%).
A short description of test [4]: Cell cycle arrest in human KB cells assessed as accumulation at G0/G1-phase at 0.05 uM measured after 48 hrs by propidium iodide staining-based flow cytometry (reference value: 58.26%).
Test [5] is described as follows: Cell cycle arrest in human KB cells assessed as accumulation at G0/G1-phase at 0.1 uM measured after 48 hrs by propidium iodide staining-based flow cytometry (reference value: 58.26%).
Test [6] in a line: Cell cycle arrest in human KB cells assessed as accumulation at SubG1-phase at 0.05 uM measured after 12 hrs by propidium iodide staining-based flow cytometry (reference value: 1.23%).
Test [7] is described as follows: Cell cycle arrest in human KB cells assessed as accumulation at G2/M-phase measured after 60 hrs by propidium iodide staining-based flow cytometry (reference value: 18.9%).
The nature of test [8]: Cell cycle arrest in human KB cells assessed as accumulation at S-phase measured after 12 hrs by propidium iodide staining-based flow cytometry (reference value: 15.5%).
A short description of test [9]: Cell cycle arrest in human KB cells assessed as accumulation at SubG1-phase measured after 48 hrs by propidium iodide staining-based flow cytometry (reference value: 0.61%).
A short description of test [10]: Cell cycle arrest in human KB cells assessed as accumulation at G2/M-phase measured after 48 hrs by propidium iodide staining-based flow cytometry (reference value: 23.36%).
Test [11] is described as follows: Cell cycle arrest in human KB cells assessed as accumulation at SubG1-phase measured after 24 hrs by propidium iodide staining-based flow cytometry (reference value: 0.76%).
The nature of test [12]: Cell cycle arrest in human KB cells assessed as accumulation at S-phase at 0.1 uM measured after 24 hrs by propidium iodide staining-based flow cytometry (reference value: 16.96%).
A short description of test [13]: Cell cycle arrest in human KB cells assessed as accumulation at G0/G1-phase at 0.2 uM measured after 36 hrs by propidium iodide staining-based flow cytometry (reference value: 51.51%).

As to `COc1ccc(-c2ssc(=O)c2-c2cc(OC)c(OC)c(OC)c2)cc1N`, the Activity is 22.6% in test [1]; 10.1% in test [2]; 15.8% in [3]; 50.9% in test [4]; 15.5% in [5]; 7.09% in [6]. Moreover, the Activity in test [7] worked out at 15.6%; in [8] it was 21.5%; in test [9], 56.1%; in test [10] it was 15.5%; in [11] it was 12.3%; in test [12], 25.4%. For the same compound, the Activity in test [13] amounted to 7.48%.
